Like-named read-outs stand apart in the source and are kept apart here.
Tests used:
[1] = system: HT-29 cells; assay: HT-29 cell death (MTT) with DNA damaging agents, alone or with […]; type: cell-based, human; details: for apoptosis as relative cell death, low doses: 0.5 μg/mL DOX, CIS, 1 μg/mL 5-Fu, 0.6 μg/mL IRINO, 24 h pretreatment then 24 h drug alone or with TRAILPEG 1 μg/mL; for TRAIL-induced apoptosis, sub-lethal dose combined with TRAILPEG versus drug alone: DOX 2, 5-FU 10, CIS 2, IRINO 3 μg/mL
Procedure: A total of 1×10^4 cells were plated in 0.1 mL in 96-well flat bottom plates and incubated for 24 h before being exposed to various stimuli. After incubation for the indicated times, […] MTT solution was added to each well and incubated for 1 h. After removal of the medium, 200 μL of DMSO was added to each well to dissolve the formazan crystals. The absorbance at 540 nm was determined using a microplate reader (Bio-Tek Instruments, Inc, Winooski, Vt.). Triplicate wells were assayed for each condition.

[2] = system: DR4; details: HT-29 cells, DOX 24 h, qPCR
Procedure: (§1) Total cellular RNA was purified from HT-29 cells using Trizol reagent (Life Technology) and subjected to amplification with SuperScript One-Step RT-PCR system (Life Technology). Real-time PCR was carried out using a StepOne™ Real-Time PCR System according to the manufacturer instructions (Life Technology). The mean cycle threshold value (Ct) from triplicate samples was used to calculate the gene expression. β-actin was used as an internal control to normalize the variability in expression.

[3] = system: DR5; details: HT-29 cells, DOX 24 h, qPCR
Procedure: as §1

[4] = system: HT-29 cells; assay: Western blotting of apoptosis markers in HT-29 cells; type: cell-based, human; details: western blot
Text: (§2) Immunoblots were visualized by an enhanced chemiluminescence method.

[5] = system: DR5; assay: Western blot of DR5 protein in HT-29 cells; type: cell-based, human; details: DOX 2 μg/mL, regardless of TRAILPEG
Text: as §2

[6] = DOX distribution in HT-29 xenograft tumors; type: in vivo, mice; details: HT-29 xenografts, single i.v. 7 mg/kg DOX-based
Procedure: Mice bearing HT-29 xenograft tumors were intravenously administered with DOX (7 mg/kg) and HAC/DOX (containing 7 mg/kg equivalent doxorubicin) when tumors reached 300 mm^3. At each selected time point, 3 mice in one group were euthanized by cervical dislocation. Whole blood was collected via cardiac puncture with a heparinized syringe. Tumors were dissected out and frozen at −70° C. immediately. Plasma samples were isolated from whole blood by centrifugation at 3000 g for 5 min. Tissues homogenates were prepared in 800 μL water using a Polytron homogenizer (Brinkman Instruments, Mississauga, Ontario, Canada), and then 200 μL of H2SO4 was added to the tissue homogenates. The solutions were then digested for 2 h at 60° C. After the vials cooled to room temperature, 100 μL of AgNO3 was added. Then the samples were centrifuged at 12,000 g for 10 min, and the supernatant was counted in a fluorospectrometer (RF-5301, Shimadzu) at an excitation wavelength of 500 nm and emission wavelength of 558 nm. The concentration of doxorubicin in each tissue was calculated based on a calibration curve. The calibration curve was linear over the 0.02 and 2.00 μg/mL range with a correlation coefficient of R^2=0.9993.

[7] = Survival of HT-29 xenograft mice during treatment; type: in vivo, BALB/c athymic mice; details: high dose 7 mg/kg free DOX (with TRAILPEG), HT-29 xenografts
Procedure: The antitumor effects of […] after HAC/DOX sensitizing were investigated in HT-29 tumor bearing mice (n=5). Briefly, freshly harvested HT-29 cells (5×10^6 cells/mouse) were inoculated s.c. into BALB/c athymic mice. Treatment was initiated when the tumors reached a mean volume of 150 mm^3. Mice were treated with three rounds of DOX or HAC/DOX (7 mg/kg, i.v.) combined with […] (8 mg/kg, i.v.) for 10 days. The tumors were analyzed and calculated as described above. (n=5).

[8] = system: Casp-8, Casp-3; assay: Western blot of cleaved caspases in HT-29 tumors in vivo; set-up: species or system mice; details: followed by TRAILPEG, HT-29 xenografts
Text: as §2

[9] = system: DR4; details: HT-29 cells, DOX 2 μg/mL
Text: (§3) Anti-caspase-8 (Cell Signaling Technology, Danvers, Mass., #9746), anti-cleaved PARP-1 (Cell Signaling Technology, #5625), anti-cleaved caspase-3 (Cell Signaling Technology, #9664), anti-cleaved caspase-9 (Cell Signaling Technology, #7237), anti-CD44 (Cell Signaling Technology, #5640), anti-p-JNK (Cell Signaling Technology, #4668), anti-p-p53 (Ser15 Cell Signaling Technology, #9284), anti-BCl-2 (Cell Signaling Technology, #2870), anti-p-BCL-2 (Cell Signaling Technology, #2875), anti-BCL-XL (Cell Signaling Technology, #2764), anti-DR4 (Abcam, Cambridge, Mass., #13890), anti-DR5 (Abcam, #47179), anti-c-Jun (Santa Cruz Biotechnology, Santa Cruz, Calif., sc-1694), or anti-β-actin (sc-47778) were used in the Western blot analysis. In generally, cells were lysed and sonicated briefly in ice-cold PBS buffer (1 mM PMSF, and 1 μg/ml each of aprotinin, leupeptin, and pepstatin A). Cell lysates were clarified by centrifugation, resolved by SDS-PAGE, and proteins on gels were transferred to nitrocellulose (Bio-Rad, Hercules, Calif.) using a semidry blotter (Bio-Rad). The membrane was blocked with 3% BSA in TBST (10 mM Tris-Cl, pH 8.0, 150 mM NaCl, 0.05% Tween-20) and incubated overnight at 4° C. with primary antibodies. Immunoblots were visualized by an enhanced chemiluminescence method.

[10] = system: HT-29, MDA-MB-231, A549, PC3 cells; assay: Cleaved PARP-1 western blot in TRAIL-resistant tumor cell lines; type: cell-based, human; details: HT-29, MDA-MB-231, A549, PC3 (and HCT116 for the combination)
Text: as §3

[11] = humans; cited from earlier work
[12] = rodents; cited from earlier work

## CCc1c2c(nc3ccc(OC(=O)N4CCC(N5CCCCC5)CC4)cc13)-c1cc3c(c(=O)n1C2)COC(=O)[C@]3(O)CC [IRINO, irinotecan]
[1]
  apoptosis as relative cell death, low doses: did not induce apoptosis
  TRAIL-induced apoptosis, sub-lethal dose combined with TRAILPEG versus drug alone: enhanced TRAIL-induced apoptosis was observed

## COc1cccc2c1C(=O)c1c(O)c3c(c(O)c1C2=O)C[C@@](O)(C(=O)CO)C[C@@H]3O[C@H]1C[C@H](N)[C@H](O)[C@H](C)O1 [DOX, doxorubicin]
[2]
  DR4 mRNA levels: did not change
[3]
  increase of DR5 mRNA compared to untreated cells: 60%
[4]
  phosphorylation of p53 and activation of c-jun: led to the phosphorylation of p53 and the activation of c-jun
[1]
  apoptosis as relative cell death, low doses: did not induce apoptosis
  TRAIL-induced apoptosis, sub-lethal dose combined with TRAILPEG versus drug alone: enhanced TRAIL-induced apoptosis was observed
[5]
  upregulation of DR5 expression at the protein level: 3 to 4 fold
[6]
  DOX concentration in tumor over time: gradually decreased with time
[7]
  mice died during the treatment cycle: 60%
[8]; high dose 7 mg/kg DOX-based
  Casp-3 activation vs. control: 2 fold
[8]; low dose 2 mg/kg DOX-based
  Casp-3 activation vs. control: 2 fold
[9]
  upregulation of DR4 expression at the protein level: not DR4
[10]
  cleaved PARP-1 expression: induced low levels of cleaved PARP-1

## O=c1[nH]cc(F)c(=O)[nH]1 [5-FU, 5-fluorouracil]
[1]
  apoptosis as relative cell death, low doses: did not induce apoptosis
  TRAIL-induced apoptosis, sub-lethal dose combined with TRAILPEG versus drug alone: enhanced TRAIL-induced apoptosis was observed

## Oc1c2ccccc2c2c3c(cccc13)N=N2 [SP600125]
[1]; SP600125 20 μM pre-treatment
  reduction of DOX and TRAILPEG-induced cell death: 35%

## rhTRAIL: recombinant human tumor necrosis factor (TNF)-related apoptosis inducing ligand
[11]
  half-life in physiological conditions: less than 30 minutes
[12]
  half-life in physiological conditions: 3-5 min

From patent US20180050090A1, “COMPOSITIONS AND METHODS FOR SENSITIZING CELLS TO TRAIL-INDUCED APOPTOSIS” (THE JOHNS HOPKINS UNIVERSITY, priority 2008, published 2018)
